Measurements from patent publication US7524930B2, “Tumor antigen” (Green Peptide Co., Ltd, priority 2003, dated 2009).

Legend:
Assay type in all cases: cell-based, human
[1] = tested on: peripheral blood mononuclear cells derived from a cancer patient; experiment: CTL induction by peptide from autologous PBMC of cancer patient, IFN-γ production on recognition of target cells (Example 5); details: for Recognition of tumor cells by PBMC stimulated in vitro with peptide (IFN-γ production): SW620, CA9-22 and Panc-1 HLA-A2+ tumor cells, result in words; for IFN-γ production from peripheral blood mononuclear cells in recognition of target cells: PBMC stimulated with 10 μM peptide
Description: Among the peptides that were able to enhance IFN-γ production from the OK-CTLp or OK-CTL clone in Example 4, those from P1 to P19 were examined for their ability to induce CTL from peripheral blood mononuclear cells derived from a cancer patient. The method for inducing CTL by a peptide was according to the well-known method (J. Exp. Med., 187:277-288, 1998; Cancer Res., 59:4056-4063, 1999.) Specifically, autologous peripheral blood mononuclear cells (PBMC) derived from a cancer patient, from whom OK-CTLp was obtained, were incubated together with the peptide (10 μM.) The cells were re-stimulated at day 10 and 14 after the start of culturing, using autologous PBMCs as an antigen presenting cell (APC) which were pulsed with 10 μM of the same peptide for 2 h and exposed to irradiation (30 gray.) At day 21 after the start of culturing, the cells were collected to test for surface phenotype. In addition, the cells were examined for the recognition of various target cells, using IFN-γ production measured by ELISA when they were cultured together with the target cells as an indicator. As a target cells, SW620 cell, CA9-22 cell, and Panc-1 cell, which are the HLA-A2^+ tumor cells, were used.

[2] = tested on: peripheral blood mononuclear cells derived from a cancer patient; experiment: as above; details: PBMC stimulated with 10 μM peptide
OK-CTLp or OK-CTL clone = experiment: Recognition of peptide-pulsed T2 cells by OK-CTLp or OK-CTL clone (IFN-γ ELISA)
[3] = concentration of peptide 0.1 μM

**Q.** With “CLYGNVEKV (Designed peptide having an ability to activate HLA-A2 restricted Cytotoxic T lymphocytes) [Peptide P7, Gene 2 (HNRPL) 404-412]” as the sequence, how does the “Recognition of tumor cells by PBMC stimulated in vitro with peptide (IFN-γ production)” value (“Recognition of tumor cells” below) [1] read?
**A.** induced CTL recognizing any one of the HLA-A2^+ tumor cells

**Q.** And the “IFN-γ production from peripheral blood mononuclear cells in recognition of target cells” value (from here on “IFN-γ production … of target cells”) ([1]; target CA9-22 (HLA-A0207/24))?
**A.** 0 pg/mL

**Q.** What about the “IFN-γ production … of target cells” value ([1]; target Panc-1 (HLA-A0201/11)) of the same sequence?
**A.** 54 pg/mL

**Q.** What about the “IFN-γ production … of target cells” value ([1]; target SW620 (HLA-A0201/24)) of the same sequence?
**A.** 344 pg/mL

**Q.** And the “IFN-γ production … of target cells” value ([2]; target COLO320 (HLA-A24/24))?
**A.** 0 pg/mL

**Q.** What about the “IFN-γ production … of target cells” value ([2]; target QG56 (HLA-A26/26)) of the same sequence?
**A.** 0 pg/mL

**Q.** And the “IFN-γ production … of target cells” value ([2]; target RERF-LC-MS (HLA-A11/11))?
**A.** 0 pg/mL

**Q.** Which “Recognition of tumor cells” value [1] does the source give for DLLSHAFFA [Peptide P18] here?
**A.** produced IFN-γ in a significant amount

**Q.** And the “IFN-γ production … of target cells” value ([1]; target CA9-22 (HLA-A0207/24))?
**A.** 70 pg/mL

**Q.** And the “IFN-γ production … of target cells” value ([1]; target Panc-1 (HLA-A0201/11))?
**A.** >1000 pg/mL

**Q.** And the “IFN-γ production … of target cells” value ([1]; target SW620 (HLA-A0201/24))?
**A.** >1000 pg/mL

**Q.** What about the “IFN-γ production … of target cells” value ([2]; target COLO320 (HLA-A24/24)) of the same sequence?
**A.** 0 pg/mL

**Q.** And the “IFN-γ production … of target cells” value ([2]; target QG56 (HLA-A26/26))?
**A.** 29 pg/mL

**Q.** And the “IFN-γ production … of target cells” value ([2]; target RERF-LC-MS (HLA-A11/11))?
**A.** 0 pg/mL

**Q.** Which results are given for ELLNRYLYL [Peptide P27]?
**A.** IFN-γ production (OK-CTLp or OK-CTL clone; [3]): 352 pg/mL; IFN-γ production (OK-CTLp or OK-CTL clone; concentration of peptide 1 μM): 889 pg/mL; IFN-γ production (OK-CTLp or OK-CTL clone; concentration of peptide 10 μM): 250 pg/mL; IFN-γ production (OK-CTLp or OK-CTL clone; concentration of peptide 50 μM): 0 pg/mL

**Q.** Which results are given for “FMFGQKLNV (Designed peptide having an ability to activate HLA-A2 restricted Cytotoxic T lymphocytes) [Peptide P8, Gene 2 (HNRPL) 443-451]”?
**A.** Recognition of tumor cells by PBMC stimulated in vitro with peptide (IFN-γ production) [1]: produced IFN-γ in a significant amount; IFN-γ production from peripheral blood mononuclear cells in recognition of target cells ([1]; target CA9-22 (HLA-A0207/24)): 165 pg/mL; IFN-γ production from peripheral blood mononuclear cells in recognition of target cells ([1]; target Panc-1 (HLA-A0201/11)): 186 pg/mL; IFN-γ production from peripheral blood mononuclear cells in recognition of target cells ([1]; target SW620 (HLA-A0201/24)): 142 pg/mL; IFN-γ production from peripheral blood mononuclear cells in recognition of target cells ([2]; target COLO320 (HLA-A24/24)): 0 pg/mL; IFN-γ production from peripheral blood mononuclear cells in recognition of target cells ([2]; target QG56 (HLA-A26/26)): 0 pg/mL; IFN-γ production from peripheral blood mononuclear cells in recognition of target cells ([2]; target RERF-LC-MS (HLA-A11/11)): 26 pg/mL

**Q.** With “ILGELREKV (Designed peptide having an ability to activate HLA-A2 restricted Cytotoxic T lymphocytes) [Peptide P11, Gene 3 (WHSC2) 141-149]” as the sequence, how does the “Recognition of tumor cells” value [1] read?
**A.** produced IFN-γ in a significant amount

**Q.** What about the “IFN-γ production … of target cells” value ([1]; target CA9-22 (HLA-A0207/24)) of the same sequence?
**A.** 62 pg/mL

**Q.** And the “IFN-γ production … of target cells” value ([1]; target Panc-1 (HLA-A0201/11))?
**A.** >1000 pg/mL

**Q.** What about the “IFN-γ production … of target cells” value ([1]; target SW620 (HLA-A0201/24)) of the same sequence?
**A.** 893 pg/mL

**Q.** What about the “IFN-γ production … of target cells” value ([2]; target COLO320 (HLA-A24/24)) of the same sequence?
**A.** 0 pg/mL

**Q.** And the “IFN-γ production … of target cells” value ([2]; target QG56 (HLA-A26/26))?
**A.** 0 pg/mL

**Q.** What about the “IFN-γ production … of target cells” value ([2]; target RERF-LC-MS (HLA-A11/11)) of the same sequence?
**A.** 0 pg/mL

**Q.** What does the source list for “ILPRKHHRI (Designed peptide having an ability to activate HLA-A2 restricted Cytotoxic T lymphocytes) [Peptide P5, Gene 1 (UBE2V) 208-216]”?
**A.** Recognition of tumor cells by PBMC stimulated in vitro with peptide (IFN-γ production) [1]: produced IFN-γ in a significant amount; IFN-γ production from peripheral blood mononuclear cells in recognition of target cells ([1]; target CA9-22 (HLA-A0207/24)): 96 pg/mL; IFN-γ production from peripheral blood mononuclear cells in recognition of target cells ([1]; target Panc-1 (HLA-A0201/11)): 638 pg/mL; IFN-γ production from peripheral blood mononuclear cells in recognition of target cells ([1]; target SW620 (HLA-A0201/24)): 500 pg/mL; IFN-γ production from peripheral blood mononuclear cells in recognition of target cells ([2]; target COLO320 (HLA-A24/24)): 38 pg/mL; IFN-γ production from peripheral blood mononuclear cells in recognition of target cells ([2]; target QG56 (HLA-A26/26)): 0 pg/mL; IFN-γ production from peripheral blood mononuclear cells in recognition of target cells ([2]; target RERF-LC-MS (HLA-A11/11)): 0 pg/mL

**Q.** What does the source list for LIMLQNALT [Peptide P28]?
**A.** IFN-γ production (OK-CTLp or OK-CTL clone; [3]): 898 pg/mL; IFN-γ production (OK-CTLp or OK-CTL clone; concentration of peptide 10 μM): 0 pg/mL; IFN-γ production (OK-CTLp or OK-CTL clone; concentration of peptide 50 μM): 144 pg/mL
